One assay deals with spinal BMD. Particulars: after 7 years of treatment; cited from earlier work.
Assay [1] addresses T1, hAR (human androgen receptor) (Homo sapiens, UniProt P10275).
T1 construct: made in house; host or cells: baculovirus/Sf9 insect cells (extract)
T1 sequence (P10275 1-920): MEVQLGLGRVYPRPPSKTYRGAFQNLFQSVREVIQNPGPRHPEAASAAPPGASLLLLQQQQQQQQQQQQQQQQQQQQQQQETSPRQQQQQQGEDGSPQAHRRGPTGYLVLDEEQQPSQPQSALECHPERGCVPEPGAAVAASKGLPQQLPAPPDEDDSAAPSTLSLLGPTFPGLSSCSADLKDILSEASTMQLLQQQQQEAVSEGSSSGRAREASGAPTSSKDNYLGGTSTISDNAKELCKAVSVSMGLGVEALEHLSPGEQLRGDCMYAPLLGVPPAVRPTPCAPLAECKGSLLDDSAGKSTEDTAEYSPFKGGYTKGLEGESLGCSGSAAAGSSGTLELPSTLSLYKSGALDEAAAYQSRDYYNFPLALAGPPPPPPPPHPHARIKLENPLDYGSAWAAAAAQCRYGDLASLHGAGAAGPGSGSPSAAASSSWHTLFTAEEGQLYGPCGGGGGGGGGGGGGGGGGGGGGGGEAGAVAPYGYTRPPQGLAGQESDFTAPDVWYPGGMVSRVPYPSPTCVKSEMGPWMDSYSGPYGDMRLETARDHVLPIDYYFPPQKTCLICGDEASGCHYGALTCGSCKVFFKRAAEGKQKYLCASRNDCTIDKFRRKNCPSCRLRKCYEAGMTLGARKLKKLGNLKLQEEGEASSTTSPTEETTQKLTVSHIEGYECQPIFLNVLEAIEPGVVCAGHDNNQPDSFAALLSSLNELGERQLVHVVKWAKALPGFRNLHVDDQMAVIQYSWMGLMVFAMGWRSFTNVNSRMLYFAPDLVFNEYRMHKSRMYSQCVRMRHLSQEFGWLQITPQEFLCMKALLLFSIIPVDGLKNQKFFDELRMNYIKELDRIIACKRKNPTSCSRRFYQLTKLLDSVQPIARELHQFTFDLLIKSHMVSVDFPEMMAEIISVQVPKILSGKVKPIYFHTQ
Description: Competitive binding analysis on hAR extracts with 3H-DHT tracer. As to the method: The compounds of Formula I have affinity for the androgen receptor. […] The description below describes how the assay was carried out.
Competitive binding analysis was performed on baculovirus/Sf9 generated hAR extracts in the presence or absence of different concentrations of test agent and a fixed concentration of ^3H-dihydrotestosterone (^3H-DHT) as tracer. This binding assay method is a modification of a protocol previously described (Liao S., et. al. J. Steroid Biochem. 20:11-17 1984). Briefly, progressively decreasing concentrations of compounds are incubated in the presence of hAR extract (Chang et al. P.N.A.S. Vol. 89, pp. […], 1992), hydroxylapatite, and 1 nM ^3H-DHT for one hour at 4° C. Subsequently, the binding reactions are washed three times to completely remove excess unbound ^3H-DHT. hAR bound ^3H-DHT levels are determined in the presence of compounds (i.e. competitive binding) and compared to levels bound when no competitor is present (i.e. maximum binding). Compound binding affinity to the hAR is expressed as the concentration of compound at which one half of the maximum binding is inhibited. Table II below provides the results that were obtained for selected compounds (reported data is the mean of multiple tests as shown below)

The target in assay [2] is T2, androgen receptor in MDA-MB453-MMTV clone 54-19 cells (Homo sapiens, UniProt P10275).
T2 sequence (P10275 1-920 Q868H): T1 sequence (P10275 1-920) with Q868H
Description: AR antagonist cell assay (MMTV-luciferase reporter, 100 pM DHT). Type of assay: cell-based. The procedure:
The compounds ability to antagonize the effects of androgen on the androgen receptor were determined in a whole cell assay as described immediately below.
Experimental Procedure for AR Antagonist Cell Assay
Cell line: MDA-MB453-MMTV clone 54-19. This cell line is a stable transfected cell line with MDA-MB453 cell background (a human breast tumor cell line expressing androgen receptor). A MMTV minimal promoter containing ARE was first cloned in front of a firefly luciferase reporter gene. Then the cascade was cloned into transfection vector pUV120puro. Electroporation method was used for transfecting MDA-MB-453 cell. Puromycin resistant stable cell line was selected. Cell Culture Media and Reagents:
Culture medium: DMEM (high glucose, Gibco cat #: 11960-044), 10% FBS, and 1% L-glutamine
Plating medium: DMEM (phenol red free), 10% charcoal treated HyClone serum, 1% L-glutamine
Assay medium: DMEM (phenol red free), 1% charcoal treated HyClone serum, 1% L-glutamine, and 1% penicillin/streptomycin
3X luciferase buffer: 2% beta-mercaptoethanol, 0.6% ATP, 0.0135% luciferine in cell lysis buffer
• 1. Cells are maintained in culture medium, splitting cells when they reach 80-90% confluence • 2. To test compounds, 10,000 cells/well are plated to opaque 96 cell culture plate in 100 ul/well plating medium, culture for overnight at 37° C. in cell culture incubator • 3. Carefully remove plating medium, then add 80 ul/well of pre-warmed assay medium, add 10 ul/well testing compound (final concentration at) 1000 nM, 200 nM, 40 nM, 8 nM, 1.6 nM, and 0.32 nM), incubate at 37° C. for 30 minutes • 4. Add 10 ul/well freshly prepared DHT (final concentration at 100 pM) to each well, incubate at 37° C. for 17 hr (overnight) • 5. Add 50 ul/well 3X luciferase buffer, incubate at room temperature for 5 minutes, then count on Luminometer
The fold induction over background by 100 pM DHT in the absence of testing compounds is standardized as 100% and experimental result is expressed as percentage of inhibition by testing compounds.
The results are reported as the mean of multiple tests as described below (the numbers of tests are indicated in the footnote). N.D. denotes that the compound was not tested.

[3] abbreviates: baculovirus/Sf9 hAR extract, 1 nM 3H-DHT, one hour at 4° C, mean of multiple tests, read-out: AR Binding IC50.
Setting [4] is: MDA-MB453-MMTV clone 54-19, inhibition of 100 pM DHT induced luciferase, 17 hr; mean of multiple tests; read-out: AR Cell IC50.

Positions count from the first letter of the chain named. Where two headings read alike, the source gives them in different places.

For `NCCCC(O)(P(=O)(O)O)P(=O)(O)O` [alendronate], the “increase in spinal BMD” value in the assay with spinal BMD was not above 11%. `COC[C@H](COc1ccccc1)Oc1ccc(C#N)c(C(F)(F)F)c1` [Example 30, (1R)-4-(1-Methoxymethyl-2-phenoxy-ethoxy)-2-trifluoromethyl-benzonitrile]: the half-inhibitory concentration (IC50) (usually the point on the concentration scale where inhibition reaches its midpoint) was determined as 30 nM in assay [1] and 40 nM in assay [2] (read-out: AR Cell IC50; MDA-MB453-MMTV clone 54-19, inhibition of 100 pM DHT induced luciferase, 17 hr; mean of multiple tests). With `CC(C)(CCOc1ccc(C#N)c(C(F)(F)F)c1)Oc1ccc(C#N)c(C(F)(F)F)c1` [Example 18, 4,4′-[(3-Methylbutane-1,3-diyl)bis(oxy)]bis[2-(trifluoromethyl)benzonitrile]], the IC50 in assay [1] (setting [3]) is 410 nM; in assay [2] (setting [4]) it was more than 1000 nM.

As for `CC1(C)CC1(COc1ccc(C#N)c(C(F)(F)F)c1)Oc1ccc(C#N)c(C(F)(F)F)c1` (stereo not shown) [Example 10, 4-[1-(4-Cyano-3-trifluoromethyl-phenoxymethyl)-2,2-dimethyl-cyclopropoxy]-2-trifluoromethyl-benzonitrile], the IC50 in assay [1] (setting [3]) stood at 174 nM; in assay [2] (setting [4]), 447 nM.

Regarding `CCCC(CCCOc1ccc(C#N)c(C(F)(F)F)c1)Oc1ccc(C#N)c(C(F)(F)F)c1` (stereo not shown) [Example 21, 4,4′-[Heptane-1,4-diylbis(oxy)]bis[2-(trifluoromethyl)benzonitrile]], the results for the IC50 in assay [1] (setting [3]) and in assay [2] (setting [4]) were 233 nM and more than 1000 nM, respectively. In the same order, the values of `C=CC(COc1ccc(C#N)c(C(F)(F)F)c1)Oc1ccc(C#N)c(C(F)(F)F)c1` (stereo not shown) [Example 3, 4,4′-[But-1-ene-3,4-diylbis(oxy)]bis[2-(trifluoromethyl)benzonitrile]] are 115 nM and 457 nM. For `CC(C)NCC(COc1ccc(C#N)c(C(F)(F)F)c1)Oc1ccc(C#N)c(C(F)(F)F)c1` (stereo not shown) [Example 7], in that order: 319 nM and more than 1000 nM. Regarding `C[C@@H](CCOc1ccc(C#N)c(C(F)(F)F)c1)Oc1ccc(C#N)c(C(F)(F)F)c1` [Example 15, 4-({(3S)-3-[4-Cyano-3-(trifluoromethyl)phenoxy]butyl}oxy)-2-(trifluoromethyl)benzonitrile], the IC50 in assay [1] came out at 49 nM; in assay [2] (setting [4]), 257 nM. Turning to `N#Cc1ccc(OCCCOc2ccc(C#N)c(C(F)(F)F)c2)cc1C(F)(F)F` [Example 11, 4,4′-[Propane-1,3-diylbis(oxy)]bis[2-(trifluoromethyl)benzonitrile]], the figures for the IC50 in assay [1] (setting [3]) and in assay [2] (setting [4]) were 165 nM and more than 1000 nM, respectively. In the same order, the values of `CCCC(Oc1ccc(C#N)c(C(F)(F)F)c1)C(CC)COc1ccc(C#N)c(C(F)(F)F)c1` (stereo not shown) [Example 19, 4-{[3-(4-Cyanophenoxy)-2-ethylhexyl]oxy}bis[2-(trifluoromethyl)benzonitrile]] are 216 nM and more than 1000 nM. On to `CCCCCCC(COc1ccc(C#N)c(C(F)(F)F)c1)Oc1ccc(C#N)c(C(F)(F)F)c1` (stereo not shown) [Example 9, 4,4′-[Octane-1,2-diylbis(oxy)]bis[2-(trifluoromethyl)benzonitrile]], for which the figures for the IC50 in assay [1] (setting [3]) and in assay [2] (setting [4]) were 109 nM and 531 nM, respectively. For `C=CCC(CCOc1ccc(C#N)c(C(F)(F)F)c1)Oc1ccc(C#N)c(C(F)(F)F)c1` (stereo not shown) [Example 17, 4,4′-[Hex-1-ene-4,6-diylbis(oxy)]bis[2-(trifluoromethyl)benzonitrile]], the values for the IC50 in assay [1] and in assay [2] (setting [4]) were 47 nM and more than 1000 nM, respectively. In the case of `C[C@H](CCOc1ccc(C#N)c(C(F)(F)F)c1)Oc1ccc(C#N)c(C(F)(F)F)c1` [Example 14, 4-({(3R)-3-[4-Cyano-3-(trifluoromethyl)phenoxy]butyl}oxy)-2-(trifluoromethyl)benzonitrile], the IC50 in assay [1] (setting [3]) turned out to be 281 nM; in assay [2] (setting [4]) it was 905 nM.

Values taken from US7473711B2, “Androgen modulators” (Pfizer Inc., priority 2004, dated 2009).
